Literature values in patent publication US20040197404A1, “Extended release oral dosage form” (priority 2001, published 2004).

Details: in vivo

For `NC(=O)c1ccc(F)c2c1C[C@@H](N(C1CCC1)C1CCC1)CO2.O.O=C(O)C(O)C(O)C(=O)O` [(R)-3-N,N-dicyclobutylamino-8-fluoro-3,4-dihydro-2H-1-benzopyran-5-carboxamide hydrogen (2R,3R)-tartrate monohydrate], the “plasma elimination half-life, t1/2” value is given as 1.5 h.
